The text below walks through data of patent US9335326B2, “Compositions and methods for characterizing a myopathy” (The Johns Hopkins University, priority 2010, dated 2016).

In one assay the test system is HeLa cells. Nature of the assay: Immunoprecipitation of 200-kd and 100-kd autoantigens from radiolabeled lysates of mevinolin-treated HeLa cells with patient serum. The format is cell-based. Conditions: HeLa cells pretreated for 24 hours with 10 pM mevinolin versus vehicle (DMSO) alone; FIG. 5A. Here is the method: Given the strong association of statin use with the development of these anti-200/100-kd autoantibodies, HeLa cells were labelled with ^35S-methionine/cysteine after pretreatment for 24 hours with either 10 pM mevinolin or vehicle (DMSO) alone. To validate the protein equivalence of these lysates, immunoprecipitations were performed using antibodies against Mi-2 or PM-Scl. As anticipated, equal amounts of Mi-2 and the 5 protein components of the PM-Scl complex were detected in each lysate type.
Serum samples collected from each patient were stored at −80° C. HeLa cells cultured using standard procedures were radiolabeled for two hours with 100 μCi/ml ^35S-methionine and cysteine (MP Biomedicals, Solon, Ohio) in methionine-free and cysteine-free medium. The cells were subsequently lysed in buffer A (50 mM Tris pH 7.4, 150 mM NaCl, […], 0.5% Nonidet P40, 0.5% sodium deoxycholate, 0.1% sodium dodecyl sulfate (SDS), and a protease inhibitor cocktail). Each 10-cm dish was lysed in 1 ml buffer A and was used for 10 immunoprecipitations. Immunoprecipitations were performed by adding 1 μl of patient sera to 100 μl radiolabeled lysate and bringing the volume to 1 ml with buffer B (1% Nonidet P40, 20 mM Tris pH 7.4, 150 mM NaCl, 1 mM EDTA, and a protease inhibitor cocktail) and rotating the mix for one hour at 4° C. […]

Assay [1] has as its system anti-200/100 autoantibody-positive patients. The assay can be described thus: Treatment response (objective improvement in strength) of anti-200/100 autoantibody-positive patients with necrotizing myopathy. The format is in vivo, human. From the text: Medication regimens and treatment responses (based on objective improvements in strength) were variable. The clinical characteristics of the 16 anti-200/100 autoantibody-positive patients are available. […] Six (43%) of the 14 patients experienced a relapse when immunosuppressive medication was tapered or withdrawn. Seven […] of the 14 patients are currently undergoing tapering of their immunosuppressive medications and have not experienced a relapse to date. Only 1 patient had complete tapering of immunosuppressive medications without experiencing a relapse of weakness.
Two hundred twenty-five patients with banked sera, muscle biopsy specimens available for review, and a myopathy as defined by proximal muscle weakness, elevated creatine kinase (CK)levels, myopathic electromyography (EMG) findings, muscle edema on magnetic resonance imaging (MRI), and/or features of myopathy on muscle biopsy were enrolled in a longitudinal study, approved by the Johns Hopkins Institutional Review Board, from March 2007 through December 2008. […]

Assay [2] relates to human anti-HMGCR antibodies. Nature of the assay: Competition immunoprecipitation: patient sera preincubated with unlabeled C-terminal HMGCR, then IP of full-length IVTT HMGCR. The settings on record: anti-HMGCR-positive sera preincubated with increasing concentrations of unlabeled C-terminal HMGCR; FIG. 7A. The format is binding. From the text:
HMG-CoA reductase is a membrane protein with a small extracellular domain, seven membrane-spanning domains, and an intracellular catalytic domain. To define the region(s) of the protein recognized by sera from patients with anti-HMGCR antibodies, 35S-methionine-labeled full-length HMGCR protein, an N-terminal fragment including the extracellular and membrane-spanning domains (aa 1-377 of SEQ ID NO: 1), and a C-terminal fragment including the intracellular portion of the molecule (aa 340-888 of SEQ ID NO: 1) were synthesized. Serum from anti-HMGCR-positive patients consistently immunoprecipitated full-length HMGCR and the C-terminal fragment, but not the N-terminal fragment (FIG. 6). When anti-HMGCR-positive sera were preincubated with increasing concentrations of unlabeled C-terminal HMGCR prior to immunoprecipitation of 35S-methionine-labeled full-length HMGCR protein, immunoprecipitation was abolished (FIG. 7A).
DNA encoding full-length human HMG-CoA reductase was purchased from Invitrogen (Carlsbad, Calif.). […]
One microliter of each patient serum was preincubated (30 minutes at 4° C. in 50 μl) with the catalytic domain of human HMG-CoA reductase (aa 426-888 of SEQ ID NO: 1) expressed as a fusion protein with glutathione S-transferase (hereinafter referred to as “C-terminal HMG-CoA reductase”; Sigma). […]

On to `CC[C@H](C)C(=O)O[C@H]1C[C@@H](C)C=C2C=C[C@H](C)[C@H](CC[C@@H]3C[C@@H](O)CC(=O)O3)[C@H]21` [mevinolin], for which, in the assay on HeLa cells, the “increased levels of both the 200-kd and the 100-kd protein immunoprecipitated” value is recorded as 3 fold.
As to `C[C@]12C=CC(=O)C=C1CC[C@@H]1[C@@H]2C(=O)C[C@@]2(C)[C@H]1CC[C@]2(O)C(=O)CO` [prednisone], in assay [1] (most patients, combination immunosuppressive therapy was required), the “initial response to prednisone” value is recorded as “very modest initial response”.
Take Rituximab: immunosuppressant drug: in assay [1] (added to prednisone and azathioprine or methotrexate), the “benefit as adjunct therapy” value is recorded as “helpful adjuncts”.

B1: C-terminal HMGCR: catalytic domain of human HMG-CoA reductase (aa 426-888 of SEQ ID NO: 1) expressed as a fusion protein with glutathione S-transferase (Sigma) (protein, UniProt P04035 426-888, looked up, fragment)
chain: SSVLVTQEPEIELPREPRPNEECLQILGNAEKGAKFLSDAEIIQLVNAKHIPAYKLETLMETHERGVSIRRQLLSKKLSEPSSLQYLPYRDYNYSLVMGACCENVIGYMPIPVGVAGPLCLDEKEFQVPMATTEGCLVASTNRGCRAIGLGGGASSRVLADGMTRGPVVRLPRACDSAEVKAWLETSEGFAVIKEAFDSTSRFARLQKLHTSIAGRNLYIRFQSRSGDAMGMNMISKGTEKALSKLHEYFPEMQILAVSGNYCTDKKPAAINWIEGRGKSVVCEAVIPAKVVREVLKTTTEAMIEVNINKNLVGSAMAGSIGGYNAHAANIVTAIYIACGQDAAQNVGSSNCITLMEASGPTNEDLYISCTMPSIEIGTVGGGTNLLPQQACLQMLGVQGACKDNPGENARQLARIVCGTVMAGELSLMAALAAGHLVKSHMIHNRSKINLQDLQGACTKKTA
modifications: GST fusion
As to B1, the “immunoprecipitation of 35S-methionine-labeled full-length HMGCR protein” value in assay [2] is “abolished”.
